Patent US8623821B2, “Zymogen activators” (Genentech, Inc., priority 2011, dated 2014)
pEC50: −log10 of the molar value. Blank lines part the entries; values can stand above or below the compound they belong to. Where a SMILES comes first, the peptide text is derived from it. Bridges are numbered along the chain shown (N, C = ends). Where no end group is shown, it is not given here.

How the values were obtained:
[1] = target: zymogen-like pro-MSP β-chain (zMSP β); assay: Activation of zMSP β binding to RON; conditions: activation of zMSP β to bind RON
Procedure: The phage approach was also tested against pro-Macrophage Stimulating Protein (pro-MSP), another plasminogen-related growth factor, which, following proteolytic cleavage, signals through the RON receptor, having important roles in inflammation and cancer. Using a new cyclic library based on ZAP.03 (ZAPtide3 Library) and the described selection method a ZAPtide was discovered, ZAP3.2 that was specific for activating the zymogen-like pro-MSP β-chain (zMSP β) to bind RON with an AC50 of 134 μM.

scHGF [2] = target: T1, scHGF (Homo sapiens, UniProt P14210, R494E); assay: BxPC-3 cell survival assay, peptide titrations in the presence of scHGF; assay type: cell-based; parameters: Full-length recombinant HGF proteins were expressed in 1-liter fermentation cultures of Chinese hamster ovary (CHO) cells; made in house; host or cells: CHO cells (scHGF); conditions: BxPC-3 cells, serum starvation, 72 h, alamar Blue; read-out: EC50 of activation of scHGF, cell survival
Procedure: BxPC-3 cells were obtained from ATCC and maintained in cell culture medium (RPMI, 10% FBS (Sigma), 50 U/ml penicillin/50 μg/ml streptomycin, 2 mM glutamine). For the survival assay, cells were plated at 10,000 cells/well in 96 well tissue culture plates (Falcon 353072) in 50 μl assay diluent (RPMI, 0.1% BSA (Sigma) 50 U/ml penicillin/50 μg/ml streptomycin, 2 mM glutamine). Cells were allowed to attach for 1-2 h in a 37° C. CO2 incubator. Human HGF proteins (HGF, scHGF or scHGF plus peptide titrations) were pre-incubated at room temperature in assay diluent. HGF/peptide mixtures were added to cells in microtiter plates in triplicate at 50 μl per well and plates were incubated at 37° C. in a CO2 incubator. Final concentrations of HGF variants were 400 ng/ml and peptide concentrations were titrated accordingly. After 72 h, 25 μl alamar Blue (Serotec, BUF012B) was added to each well and incubate an additional 2 h at 37° C. in a CO2 incubator. Plates were agitated vigorously for 10 min at room temperature, and fluorescence was read at 530-590 nm in a fluorescent plate reader.
Using Bx-PC3 cells, peptide titrations in the presence of scHGF were performed and observed robust activation was seen of scHGF signaling through Met, which reached levels equivalent HGF-induced signaling.
(§1) Cellular assays were used to address whether the optimized ZAPtides act as allosteric activators of pro-HGF and stimulate Met signaling in biologically relevant settings of cell survival and migration. […] Importantly, ZAPtides required the presence of scHGF as well as induced […] cell survival that was antagonized by an HGF-blocking anti-Met antibody, each confirming Met pathway selectivity.

scHGF [3] = target: T1, scHGF; assay: In vitro wound closure assay, HeLa cell migration in the presence of scHGF; assay type: cell-based; parameters: Full-length recombinant HGF proteins were expressed in 1-liter fermentation cultures of Chinese hamster ovary (CHO) cells; made in house; host or cells: CHO cells (scHGF); Met is endogenous in HeLa cells; conditions: HeLa cells, scHGF present, read-out: EC50 of HeLa cell migration response
Description: as §1

Protein C = target: T2, Protein C (Homo sapiens, UniProt P04070); assay: Zymogen serine protease activity assay (Ile-Pro-Arg-pNA hydrolysis); assay type: biochemical; conditions: 100 nM Protein C, 2 mM Ile-Pro-Arg-pNA, peptide titration
T2 construct: purchased Haematologic Technologies, Inc. (Essex Junction, Vt.)
Procedure: (§2) Zymogen serine proteases prethrombin-2 and Protein C were purchased from Haematologic Technologies, Inc. (Essex Junction, Vt.). Kinetic assays were carried out in 20 mM Hepes, 150 mM NaCl, 5 mM CaCl2, 0.01% Triton X-100, pH 7.2. All reactions contained 100 nM of enzyme plus 2 mM Ile-Pro-Arg-pNA substrate. IVGG.147A was titrated and the initial rates of substrate hydrolysis were measured in clear bottom 96-well plates using 405 nm absorbance on a SpectraMax Plus (Molecular Devices, Inc.).
(§3) The IVGG.14 peptide activator of pro-HGF took advantage of the canonical trypsin-like activation mechanism in order to allosterically activate binding of the serine protease-like domain within pro-HGF to Met. Given this activation mechanism is highly conserved among zymogens of the trypsin-like family of serine proteases and the fact that these proteins share a high degree of structural homology within the serine protease-like domains as well as the activation pockets, ZAPs for pro-HGF were analyzed for ability allosterically activate other zymogen serine proteases.

prethrombin-2 = target: T3, prethrombin-2 (Homo sapiens, UniProt P00734); assay: as above; assay type: biochemical; conditions: 100 nM prethrombin-2, 2 mM Ile-Pro-Arg-pNA, peptide titration
T3 construct: Zymogen serine proteases prethrombin-2 and Protein C were purchased from Haematologic Technologies, Inc; purchased Haematologic Technologies, Inc. (Essex Junction, Vt.)
Procedure: as §2, §3

Peptide solubility = assay type: physicochemical

T1 sequence (P14210 32-728 R494E): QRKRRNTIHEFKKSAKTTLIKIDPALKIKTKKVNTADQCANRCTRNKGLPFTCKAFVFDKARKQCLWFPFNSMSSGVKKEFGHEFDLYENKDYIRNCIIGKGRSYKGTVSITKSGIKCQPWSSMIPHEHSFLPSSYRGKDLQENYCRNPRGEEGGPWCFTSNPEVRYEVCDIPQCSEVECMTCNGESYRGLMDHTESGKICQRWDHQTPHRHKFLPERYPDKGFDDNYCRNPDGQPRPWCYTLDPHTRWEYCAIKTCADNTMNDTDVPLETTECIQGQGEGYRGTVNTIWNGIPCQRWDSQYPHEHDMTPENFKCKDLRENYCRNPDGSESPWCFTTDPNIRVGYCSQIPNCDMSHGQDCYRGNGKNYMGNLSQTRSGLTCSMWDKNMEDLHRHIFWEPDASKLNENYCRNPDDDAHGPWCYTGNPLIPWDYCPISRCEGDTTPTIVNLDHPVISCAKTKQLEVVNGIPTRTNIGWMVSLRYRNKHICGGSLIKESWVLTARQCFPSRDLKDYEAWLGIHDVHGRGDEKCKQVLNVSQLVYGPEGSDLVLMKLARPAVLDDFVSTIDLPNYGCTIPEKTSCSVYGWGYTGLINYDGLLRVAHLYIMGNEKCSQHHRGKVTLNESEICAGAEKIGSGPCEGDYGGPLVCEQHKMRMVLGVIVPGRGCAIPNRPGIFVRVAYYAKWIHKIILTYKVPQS
T2 sequence (P04070 19-461 limits assumed): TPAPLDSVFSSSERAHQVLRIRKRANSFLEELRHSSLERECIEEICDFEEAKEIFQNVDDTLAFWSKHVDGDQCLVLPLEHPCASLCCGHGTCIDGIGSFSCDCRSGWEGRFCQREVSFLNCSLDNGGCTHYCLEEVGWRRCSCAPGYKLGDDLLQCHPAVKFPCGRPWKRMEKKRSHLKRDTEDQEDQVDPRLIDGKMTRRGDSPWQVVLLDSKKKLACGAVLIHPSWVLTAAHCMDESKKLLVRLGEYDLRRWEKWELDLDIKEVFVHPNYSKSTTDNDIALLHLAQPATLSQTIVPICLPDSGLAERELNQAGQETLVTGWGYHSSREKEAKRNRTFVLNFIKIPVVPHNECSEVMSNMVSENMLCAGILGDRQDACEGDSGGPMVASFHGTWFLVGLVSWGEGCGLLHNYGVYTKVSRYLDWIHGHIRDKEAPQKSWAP

- AC50 [1]: 134000 nM
Compound: ZAP3.2: ZAPtide from the cyclic ZAPtide3 Library based on ZAP.03, activating zymogen-like pro-MSP β-chain (zMSP β) to bind RON (IVGGEPVWYVW; not fully specified)

- pEC50 (scHGF [3]): 7.22
Compound: CC[C@H](C)[C@H](N)C(=O)N[C@H](C(=O)NCC(=O)NCC(=O)N[C@H]1CSSC[C@@H](C(=O)N[C@H](C(N)=O)[C@@H](C)CC)NC(=O)[C@H](CCC(=O)O)NC(=O)[C@H](CCC(=O)O)NC(=O)[C@H](CCCNC(=N)N)NC(=O)[C@H](CC(=O)O)NC(=O)[C@H](CCSC)NC(=O)[C@H](Cc2c[nH]c3ccccc23)NC(=O)[C@H](Cc2ccc(O)cc2)NC(=O)[C@@H]2CCCN2C1=O)[C@@H](C)CC [ZAP.03, I I G G C P Y W M D R E E C I] (H-IIGGCPYWMDREECI-NH2; disulfide 5-14)
- pEC50 (scHGF [2]): 6.40

- initial rate of substrate hydrolysis (Vi) (Protein C): significantly increased
- initial rate of substrate hydrolysis (Vi) (prethrombin-2): significantly increased
- solubility, in words (Peptide solubility): exceptionally soluble
Compound: CC[C@H](C)[C@H](N)C(=O)N[C@H](C(=O)NCC(=O)NCC(=O)N[C@@H](Cc1ccc(O)cc1)C(=O)N1CCC[C@H]1C(=O)N[C@@H](C)C(=O)N[C@@H](Cc1c[nH]c2ccccc12)C(=O)N[C@@H](CCSC)C(=O)N[C@@H](CC(=O)O)C(=O)N[C@H](C(N)=O)C(C)C)C(C)C [IVGG.147A, I V G G Y P A W M D V] (H-IVGGYPAWMDV-NH2; N-terminus assumed)
